Results from PubChem BioAssay AID330 (DTP/NCI, 2004).
Several values for one entry are separate records, joined by “and”; a condition that tells them apart may be missing. Equal values may be shown once. Inconclusive results and toxic doses are left out. The calls were made as follows: active = survival T/C of 150% or more; inactive = T/C below 125% in these data.

System: P388 leukemia ip, CD2F1 mice, survival T/C
Assay: NCI In Vivo Anticancer Drug Screen. Data for tumor model P388 Leukemia (intraperitoneal) in CD2F1 (CDF1) mice
Details: endpoint: median survival time, higher = longer survival
Procedure, shortened: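 Mice carrying the transplanted tumor received test compound or vehicle. Survival was recorded in each group, and the value is the treated-group measurement divided by that of the vehicle-treated control group.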

[1] = dose: 60.0 mg/kg/injection, schedule: Q01DX005 (ip), vehicle: saline with Tween-80
[2] = dose: 120.0 mg/kg/injection, schedule: Q01DX005 (ip), vehicle: saline with Tween-80
[3] = dose: 240.0 mg/kg/injection, schedule: Q01DX005 (ip), vehicle: saline with Tween-80
[4] = dose: 25.0 mg/kg/injection, schedule: Q01DX009 (ip), vehicle: saline with Tween-80
[5] = dose: 50.0 mg/kg/injection, schedule: Q01DX009 (ip), vehicle: Klucel (hydroxypropylcellulose) (HPC)
[6] = dose: 50.0 mg/kg/injection, schedule: Q01DX009 (ip), vehicle: saline with Tween-80
[7] = dose: 100.0 mg/kg/injection, schedule: Q01DX009 (ip), vehicle: Klucel (hydroxypropylcellulose) (HPC)
[8] = dose: 100.0 mg/kg/injection, schedule: Q01DX009 (ip), vehicle: saline with Tween-80
[9] = dose: 200.0 mg/kg/injection, schedule: Q01DX009 (ip), vehicle: Klucel (hydroxypropylcellulose) (HPC)
[10] = dose: 200.0 mg/kg/injection, schedule: Q01DX009 (ip), vehicle: saline with Tween-80

Measured: T/C

O=Nc1ccc(NO)cc1
inactive: dose: 25.0 mg/kg/injection, schedule: Q04DX003 (ip), vehicle: Klucel (hydroxypropylcellulose) (HPC) 110 % of control | dose: 50.0 mg/kg/injection, schedule: Q04DX003 (ip), vehicle: Klucel (hydroxypropylcellulose) (HPC) 108 % of control | dose: 100.0 mg/kg/injection, schedule: Q04DX003 (ip), vehicle: Klucel (hydroxypropylcellulose) (HPC) 103 % of control | dose: 200.0 mg/kg/injection, schedule: Q04DX003 (ip), vehicle: Klucel (hydroxypropylcellulose) (HPC) 110 % of control | dose: 400.0 mg/kg/injection, schedule: Q04DX003 (ip), vehicle: Klucel (hydroxypropylcellulose) (HPC) 88 % of control

CSc1nc2c(nnn2C2OC(CO)C(O)C(O)C2O)c(=O)[nH]1 (stereo not given)
inactive: [1] 100 % of control | [2] 97 % of control | [3] 102 % of control

Cc1c2ccn3c(=O)c4ccccc4cc3c2c(C)c2c1[nH]c1ccccc12
inactive: dose: 0.78 mg/kg/injection, schedule: Q04DX003 (ip), vehicle: distilled water + Tween-80 89 % of control | dose: 1.56 mg/kg/injection, schedule: Q04DX003 (ip), vehicle: distilled water + Tween-80 87 % of control | dose: 200.0 mg/kg/injection, schedule: Q04DX003 (ip), vehicle: distilled water + Tween-80 95 % of control

O=C1NC(=O)NC(C(=O)O)N1
inactive: dose: 12.5 mg/kg/injection, schedule: Q01DX009 (ip), vehicle: Klucel (hydroxypropylcellulose) (HPC) 105 % of control | dose: 25.0 mg/kg/injection, schedule: Q01DX009 (ip), vehicle: Klucel (hydroxypropylcellulose) (HPC) 105 % of control | [4] 94 % of control | dose: 50.0 mg/kg/injection, schedule: Q01DX009 (ip), vehicle: DMSO 103 % of control | [5] 104 % of control | [6] 100 % of control | dose: 100.0 mg/kg/injection, schedule: Q01DX009 (ip), vehicle: DMSO 100 % of control | [7] 104 % of control | [8] 100 % of control | dose: 200.0 mg/kg/injection, schedule: Q01DX009 (ip), vehicle: DMSO 97 % of control | [9] 115 % of control | [10] 95 % of control

CCSc1ccc2c3c(cccc13)C(=O)N(CCc1ccccn1)C2=O
inactive: [5] 98 % of control | [7] 99 % of control | [9] 92 % of control

C=C(CCS(=O)c1ccccc1)CC(CC(=C)COC(C)=O)S(=O)(=O)c1ccccc1 (stereo not given)
inactive: dose: 60.0 mg/kg/injection, schedule: Q01DX005 (ip), vehicle: Klucel (hydroxypropylcellulose) (HPC) 99 % of control | dose: 120.0 mg/kg/injection, schedule: Q01DX005 (ip), vehicle: Klucel (hydroxypropylcellulose) (HPC) 99 % of control | dose: 240.0 mg/kg/injection, schedule: Q01DX005 (ip), vehicle: Klucel (hydroxypropylcellulose) (HPC) 98 % of control

COc1ccc(/C=N/SC(c2ccccc2)(c2ccccc2)c2ccccc2)cc1
inactive: dose: 100.0 mg/kg/injection, schedule: Q04DX002 (ip), vehicle: saline with Tween-80 111 % of control | dose: 200.0 mg/kg/injection, schedule: Q04DX002 (ip), vehicle: saline with Tween-80 99 % of control | dose: 400.0 mg/kg/injection, schedule: Q04DX002 (ip), vehicle: saline with Tween-80 92 % of control

FC(F)(F)c1cccc(OCC2CO2)c1 (stereo not given)
inactive: [5] 102 % of control | [7] 99 % of control | [9] 97 % of control

CN1C(=O)N(C)C2(C(=O)N(C)C(=S)N2C)N(C)C1=O
inactive: [1] 95 % of control | [2] 103 % of control | [3] 102 % of control

CC(C)CCC1(CCCl)C(=O)NC(=O)NC1=O
inactive: dose: 50.0 mg/kg/injection, schedule: Q01DX005 (ip), vehicle: Klucel (hydroxypropylcellulose) (HPC) 102 % of control | dose: 100.0 mg/kg/injection, schedule: Q01DX005 (ip), vehicle: Klucel (hydroxypropylcellulose) (HPC) 106 % of control

Cn1nnnc1NNc1nnnn1C
inactive: dose: 50.0 mg/kg/injection, schedule: Q01DX005 (ip), vehicle: saline with Tween-80 99 % of control | dose: 100.0 mg/kg/injection, schedule: Q01DX005 (ip), vehicle: saline with Tween-80 99 % of control | dose: 200.0 mg/kg/injection, schedule: Q01DX005 (ip), vehicle: saline with Tween-80 99 % of control

O=C(N/N=C/c1cc(Br)cc(Br)c1[O-])c1ccccc1.O=C(N/N=C/c1cc(Br)cc(Br)c1[O-])c1ccccc1.[Mn+2]
inactive: dose: 100.0 mg/kg/injection, schedule: Q01DX001 (ip), vehicle: saline with Tween-80 95 % of control | dose: 200.0 mg/kg/injection, schedule: Q01DX001 (ip), vehicle: saline with Tween-80 101 % of control | dose: 400.0 mg/kg/injection, schedule: Q01DX001 (ip), vehicle: saline with Tween-80 98 % of control

O=C(NC(=O)C(F)(F)C(F)(F)C(F)(F)F)Nc1cccc(F)c1
inactive: [6] 100 % of control | [8] 100 % of control | [10] 100 % of control

CC1=CC(O)(CC(N)=O)C=C(C)C1=O
inactive: dose: 3.13 mg/kg/injection, schedule: Q01DX009 (ip), vehicle: distilled water + Tween-80 100 % of control | dose: 6.25 mg/kg/injection, schedule: Q01DX009 (ip), vehicle: distilled water + Tween-80 100 % of control | dose: 12.5 mg/kg/injection, schedule: Q01DX009 (ip), vehicle: distilled water + Tween-80 99 % of control | dose: 25.0 mg/kg/injection, schedule: Q01DX009 (ip), vehicle: distilled water + Tween-80 100 % of control | dose: 50.0 mg/kg/injection, schedule: Q01DX009 (ip), vehicle: distilled water + Tween-80 100 % of control | dose: 100.0 mg/kg/injection, schedule: Q01DX009 (ip), vehicle: distilled water + Tween-80 108 % of control | dose: 200.0 mg/kg/injection, schedule: Q01DX009 (ip), vehicle: distilled water + Tween-80 108 % of control | dose: 400.0 mg/kg/injection, schedule: Q01DX009 (ip), vehicle: distilled water + Tween-80 108 % of control

COc1ccc(C(O)Cc2ccccc2)cc1 (stereo not given)
inactive: dose: 31.25 mg/kg/injection, schedule: Q01DX009 (ip), vehicle: saline + Tween-80 + alcohol 93 % of control | dose: 62.5 mg/kg/injection, schedule: Q01DX009 (ip), vehicle: saline + Tween-80 + alcohol 91 % of control | dose: 125.0 mg/kg/injection, schedule: Q01DX009 (ip), vehicle: saline + Tween-80 + alcohol 91 % of control | dose: 250.0 mg/kg/injection, schedule: Q01DX009 (ip), vehicle: saline + Tween-80 + alcohol 89 % of control

[O-][N+](CCO)(CCO)c1ncnc2nc[nH]c12
inactive: dose: 50.0 mg/kg/injection, schedule: Q01DX005 (ip), vehicle: suspension in saline 102 % of control | dose: 100.0 mg/kg/injection, schedule: Q01DX005 (ip), vehicle: suspension in saline 106 % of control | dose: 200.0 mg/kg/injection, schedule: Q01DX005 (ip), vehicle: suspension in saline 102 % of control

COC1OC(COC(=O)c2ccccc2)C=C(OC(=O)c2ccccc2)C1=O (stereo not given)
inactive: dose: 6.25 mg/kg/injection, schedule: Q01DX009 (ip), vehicle: saline with Tween-80 103 % of control | dose: 12.5 mg/kg/injection, schedule: Q01DX009 (ip), vehicle: saline with Tween-80 105 % of control | [4] 103 % of control | [6] 102 % of control and 113 % of control and 114 % of control | [8] 105 % of control and 92 % of control | [10] 114 % of control and 96 % of control
